In US4424223A, “Polycyclic compounds containing a double bond in the D-ring pharmaceutical compositions containing them, and methods of treating psoriasis with them” (Richter Gedeon Vegyeszeti Gyar RT, priority 1981, dated 1984):
Counter-ions that a name gives are not always drawn.

How the values were obtained:
[1] = system: phosphodiesterase isolated from rat brain; assay: Inhibition of phosphodiesterase isolated from rat brain (radioisotopic, 3H-c-AMP); assay type: biochemical; conditions: for effect of the test compound on enzyme activity: 20 minutes incubation; for IC50: rat brain, read off from curve, 50% decrease of enzyme activity, read-out: I50 on phosphodiesterase
Method: (§1) The model experiments were performed by means of phosphodiesterase isolated from animal tissues (rat brain, cattle brain, cattle heart). The enzyme was isolated by the technique of J. Schro/ der and H. V. Richenberg [Biochem. Biophys. Acta 302, 50 (1973)] whereupon the phosphodiesterase isolated was purified according to the method of J. G. Hardman and E. W. Sutherland [J. Biol. Chem. 240, 3704 (1965)] and the activity of the purified enzyme was measured by a radioisotopic method developed by G. Po/ ch, in the presence of an excess amount of c-AMP tricium-labeled (10.1 mmoles of a c-AMP substrate containing 2.59K Bq of 3H-c-AMP), in an incubator. The measurement was first carried out without the inhibitory substance and then in the presence of 17,18-dehydro-apivincaminol-3',4',5'-trimethoxy-benzoate as an inhibitor agent, after an incubation time of 20 minutes [N.S. Arch. Pharmacol. 268, 272 (1971)]. From the test compound a 1 mmole stock solution was prepared with aqueous hydrochloric acid solution and different amounts of the stock solution were added to the enzyme preparates corresponding to 5×10^-6, 1×10^-5 and 5×10^-5 mole/lit. of the test compound. A solution of papaverine used as reference compound is added to the enzyme preparate in an analogous manner.
The activity of the solutions containing 17,18-dehydro-apovincaminol-3',4',5'-trimethoxy-benzoate and papaverine was expressed in percents of the control (enzyme solution without any inhibitory substance, 100%). The results obtained on an enzyme isolated from rat brain are as follows:
(§2) The tests on an enzyme isolated from cattle brain and cattle heart, resp. were carried out in an analogous way.

[2] = biological target: phosphodiesterase isolated from cattle heart; assay: Inhibition of phosphodiesterase isolated from cattle heart (radioisotopic, 3H-c-AMP); assay type: biochemical; conditions: for IC50: cattle heart, read off from curve, 50% decrease of enzyme activity, read-out: I50 on phosphodiesterase
Method: as §1, §2

[3] = biological target: phosphodiesterase isolated from cattle brain; assay: Inhibition of phosphodiesterase isolated from cattle brain (radioisotopic, 3H-c-AMP); assay type: biochemical; conditions: for IC50: cattle brain, read off from curve, 50% decrease of enzyme activity, read-out: I50 on phosphodiesterase
Method: as §1, §2

psoriasis [4] = assay: Clinical test of topical creams on patients suffering from psoriasis (plaque method); assay type: in vivo, patients (human); conditions: cream with 2% active ingredient, scale 0-3
Method: The first clinical tests were carried out with preparations for topical use, e.g. ointments, creams, solutions, tinctures, pastes, aerosols, etc. containing the new compound according to the invention as an active ingredient. More particularly, creams containing 2%, 1%, 0.5%, 0.25% and […], resp. of 17,18-dehydro-apovincaminol-3',4',5'-trimethoxy-benzoate were employed.
Clinical tests were performed on patients suffering from psoriasis. During the tests the patients have not received any systemic, e.g. immunosuppressive, cytostatic or glucocorticoid treatment for their basic disease.
Groups of 5 were examined by the so-called plaque method. One side of symmetrical skin lesions was treated by a creme containing the active ingredient in the desired concentration, while on the other side a placebo was applied. The remaining psoriatic sites on the skin were subjected to other topical treatments for example with ointments containing flumethasone pivalate and salicylic acid, as active ingredient, which are widely used for the treatment of psoriasis.
The tests were started with creams having a higher active ingredient concentration and then further patients were treated with preparations containing the smallest effective active ingredient concentration.
The efficiency was evaluated upon observing three symptoms: inflammation, infiltration and desquamation (peeling). The intensity of the symptoms was qualified by scores between 0 and 3. The total number of scores served as a measure of the reduction of symptoms. The results were evaluated by methods of mathematical statistics. During the treatment undesirable side effects have never been observed.
Evaluations were made before the treatment (I), after a one-week treatment (II) and after a two-week treatment (III). The results set forth in the following table are the average number of scores (total number of scores/number of patient) for creams containing 2% of active ingredient.

psoriasis [5] = conditions: phosphodiesterase inhibitor; Voorhees et al., Arch. Derm. 104, 359 (1971); cited from earlier work
[6] = rat brain enzyme, 1 × 10^-5 mole/lit.
[7] = rat brain enzyme, 5 × 10^-5 mole/lit.
[8] = rat brain enzyme, 5 × 10^-6 mole/lit.

CC[C@]12C=CCN3CCc4c(n(c5ccccc45)C(COC(=O)c4cc(OC)c(OC)c(OC)c4)=C1)[C@@H]32 [17,18-dehydro-apovincaminol-3',4',5'-trimethoxy-benzoate.HCl]
effect of the test compound on enzyme activity [1, 6]: 40.7 % of the control
effect of the test compound on enzyme activity [1, 7]: 38.6 % of the control
effect of the test compound on enzyme activity [1, 8]: 84.7 % of the control
IC50 [1]: 10 µM
IC50 [2]: 3 µM
IC50 [3]: 15 µM

CC[C@]12C=CCN3CCc4c(n(c5ccccc45)C(COC(=O)c4cc(OC)c(OC)c(OC)c4)=C1)[C@@H]32 [17,18-Dehydro-apovincaminol-3',4',5'-trimethoxy-benzoate]
times more effective than papaverine ([1]; rat brain enzyme, versus papaverine): 7 times
Average number of scores, Desquamation (psoriasis [4]; I: before the treatment): 2.0 scores
Average number of scores, Infiltration (psoriasis [4]; I: before the treatment): 2.6 scores
Average number of scores, Inflammation (psoriasis [4]; I: before the treatment): 2.8 scores
Average number of scores, Desquamation (psoriasis [4]; II: after one-week treatment): 0.8 scores
Average number of scores, Infiltration (psoriasis [4]; II: after one-week treatment): 1.6 scores
Average number of scores, Inflammation (psoriasis [4]; II: after one-week treatment): 2.2 scores
Average number of scores, Desquamation (psoriasis [4]; III: after two-week treatment): 0.2 scores
Average number of scores, Infiltration (psoriasis [4]; III: after two-week treatment): 0.6 scores
Average number of scores, Inflammation (psoriasis [4]; III: after two-week treatment): 1.6 scores
times more effective than papaverine ([2]; cattle heart enzyme, versus papaverine): 18 times
times more effective than papaverine ([3]; cattle brain enzyme, versus papaverine): 6 times

COc1ccc(Cc2nccc3cc(OC)c(OC)cc23)cc1OC [papaverine]
effect on psoriasis (psoriasis [5]): successfully influenced psoriasis

COc1ccc(Cc2nccc3cc(OC)c(OC)cc23)cc1OC [papaverine.HCl, papaverine, reference compound]
effect of the test compound on enzyme activity [1, 6]: 89.7 % of the control
effect of the test compound on enzyme activity [1, 7]: 60.5 % of the control
effect of the test compound on enzyme activity [1, 8]: 91.2 % of the control
IC50 [1]: 70 µM
IC50 [2]: 50 µM
IC50 [3]: 90 µM
